How the values were obtained:
[1] = system: PINK1 KO MEFs; assay: MitoQC mitophagy assay, PINK1 knock-out MEF; type: cell-based; conditions: 5 μM, 24 h
From the text: (§1) With the inhibition of ubiquitin phosphorylation and parkin localisation to the mitochondria by kinetin riboside and the nucleoside analogue 9c, we next asked whether these compounds still induce mitophagy in a PINK1 dependent manner. To explore this, we employed the established MitoQC assay for measuring mitophagy in cells^11,12.

[2] = system: HeLa cells transfected with YFP-parkin; assay: Immunofluorescence for YFP-parkin localisation and TOM20 (mitochondrial fragmentation); type: cell-based; conditions: for parkin localisation to the mitochondria after pre-treatment followed by CCCP, compared to CCCP alone: 50 μM 24 h, then 10 μM CCCP; for impact on mitochondrial fragmentation (TOM20), compound alone / impact on parkin localisation, compound alone: 50 μM, 24 h, no niclosamide or CCCP
Method: Cells were seeded on PerkinElmer PhenoPlate 96-well plates, followed by treatment with compounds. Cells were fixed in chilled 4% PFA for 10 min followed by washes in PBS. […] Following PBS washes, cells were blocked using blocking buffer (PBS, 5% BSA, 0.1% Tween20) for 1 h at room temperature. Primary antibodies were diluted in blocking buffer and added to cells to be incubated overnight at 4° C. Cells were subsequently washed with PBS-T and the appropriate secondary antibodies (diluted in blocking buffer) were added for 2 h at room temperature in darkness. 10 μg/ml of Hoechst 33258 stain was added with secondary antibodies when required. Cells were again washed with PBS-T followed by addition of PBS with 0.02% sodium azide. Cells were then stored at 4° C. until ready for imaging. Primary antibodies used for immunofluorescence are as follows: Phospho-Ub Ser 65 (Sigma-Aldrich cat #ABS1513-1), TOM20 (Santa-Cruz cat #sc-17764). Secondary antibodies and stains used in immunofluorescence; Anti-IgG2a Alexa Fluor™ 546 (ThermoFisher cat #A21133) Anti-rabbit Alexa Fluor™ 647 (ThermoFisher cat #A21244), Hoechst 33258 stain (Sigma-Aldrich cat #B2883).
Confocal microscopy was performed using a Zeiss LSM800 w/Airyscan fluorescent microscope equipped with lasers emitting at 405 nm, 488 nm, 561 nm and 640 nm. All images were captured using a 40x oil immersion objective lens and processed using Zeiss ZEN software. Images were analysed and quantified using Columbus (PerkinElmer) and TIBCO Spotfire software.
First, HeLa cells transfected with YFP-parkin were either left untreated or treated with 50 μM kinetin riboside, nucleosides 9a and 9c for 24 h.

[3] = system: ubiquitin Ser65 phosphorylation; assay: Ubiquitin Ser65 phosphorylation in astrocytes with or without valinomycin; type: cell-based
Method: Briefly, astrocytes were treated with 50 μM of the nucleobase kinetin, nucleosides 9a and 9c or DMSO for 24 h and 5 h prior to lysis, the samples were treated with 50 nM valinomycin, a mitochondrial uncoupler.

[4] = system: immortalised MEF expressing PINK1 wild-type (WT); assay: MitoQC mitophagy assay, MEF expressing PINK1 wild-type; type: cell-based; conditions: 5 μM, 24 h
From the text: as §1

[5] = system: Ub Ser65 phosphorylation; assay: Phospho-Ub (Ub Ser65) immunoblotting in parkin- or YFP-parkin-transfected HeLa cells; type: cell-based; conditions: for inhibition of PINK1-mediated ubiquitin phosphorylation (summary statement): in cells and astrocytes, induced by mitochondrial depolarizing agents CCCP and niclosamide
Method: (§2) Both HeLa and parkin-overexpressed HeLa cells were maintained in DMEM high glucose (Gibco), 10% FBS (Sigma-Aldrich) at 37° C. with 5% CO2. For experiments, cells were counted and seeded into a range of culture plates, depending on the experiment, cell counting was done using the Cellometer Auto T4 with TrypanBlue (Gibco). […] Alternatively, HeLa cells were seeded in well plates and then transfected with […] of parkin cDNA using the PEI method once the plated cells reached 60% confluency. After 6 hours, the media was changed. Sub-culturing was done when the cells reached ˜90% confluency.
(§3) Cell culture with 70-80% confluency was lysed as follows: cells were washed with Phosphate Buffer Saline (PBS) (Sigma). 150 μl of lysis buffer was used on each well containing either: • 50 mM Tris-HCl pH 7.5, 1 mM EDTA, 1 mM EGTA, 0.27 M sucrose, 1 mM Na3VO4, 50 mM NaF, 5 mM Na pyrophosphate and fresh 1 mM benzamidine, 1% NP-40 and […]; or • 50 mM Tris-HCl pH 7.5, 1 mM EDTA, 1 mM EGTA, 10 mM Na β-glycerophosphate, 0.27 M sucrose, 1 mM Na3VO4, 50 mM NaF, 10 mM Na pyrophosphate with fresh 1 mM benzamidine, 1% Triton X-100, complete EDTA-free Protease Inhibitor, Phosphatase inhibitor cocktail 3 and 100 μM of 2-chloroacetamide.
(§4) The cells were scrapped and transferred to the microtube and eventually spun down at 12,000 rpm for 15 minutes at 4° C. Finally, the supernatant was transferred to the new microtubes and stored at −20° C. Protein concentration was measured using Bradford Assay. Serial concentrations 0.125; 0.25; 0.5 and 1 mg/ml of Bovine Serum Albumin (BSA) (Sigma Aldrich) were used as a standard. Samples were boiled at 90° C. for 5 minutes in SDS sample loading buffer.
The next day membranes were washed in TBST and incubated with horse radish peroxidase (HRP)-conjugated antibodies for 1 h at room temperature with agitation. Following TBST washes, proteins were visualised using Amersham™ ECL™ Prime kit (GE Biosciences) and imaged using the Bio-rad ChemicDoc. Primary antibodies used for western blotting; GAPDH (Abcam cat #ab9485), Phospho-Ub Ser 65 (Sigma-Aldrich cat #ABS1513-1), LC3B (Cell Signaling cat #3868S). Secondary antibodies used for western blotting; anti-rabbit HRP (Agilent Dako cat #P0399), anti-mouse HRP (Agilent Dako cat #P0260).
(§5) To explore this, we first treated parkin-transfected HeLa cells for 24 h with 50 μM kinetin, kinetin riboside or kinetin riboside ProTide, a monophosphate prodrug of kinetin riboside.

[6] = molecular target: T1, PINK1 (Homo sapiens, UniProt Q9BXM7); conditions: evidenced by parkin Ser65 phosphorylation; cited from earlier work
T1 construct: HeLa cells, which express PINK1 endogenously; endogenous in cells; host or cells: HeLa cells transiently transfected with parkin
T1 sequence (Q9BXM7 78-581): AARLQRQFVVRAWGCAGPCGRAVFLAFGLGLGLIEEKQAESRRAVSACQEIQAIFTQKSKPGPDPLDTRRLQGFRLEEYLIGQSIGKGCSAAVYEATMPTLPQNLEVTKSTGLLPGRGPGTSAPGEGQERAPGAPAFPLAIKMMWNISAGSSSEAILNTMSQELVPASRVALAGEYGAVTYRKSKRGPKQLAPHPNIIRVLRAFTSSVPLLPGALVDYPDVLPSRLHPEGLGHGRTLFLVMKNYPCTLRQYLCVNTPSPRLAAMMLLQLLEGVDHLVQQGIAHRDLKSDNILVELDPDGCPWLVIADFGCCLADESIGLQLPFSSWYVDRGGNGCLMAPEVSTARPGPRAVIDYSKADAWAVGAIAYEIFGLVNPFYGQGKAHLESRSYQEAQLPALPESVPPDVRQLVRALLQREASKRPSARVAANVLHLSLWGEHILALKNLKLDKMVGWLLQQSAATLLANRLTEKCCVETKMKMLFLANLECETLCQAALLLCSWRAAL

[7] = system: HeLa cells transfected with YFP-parkin; assay: TMRM fluorescence (mitochondrial membrane potential); type: cell-based; conditions: pre-treatment 50 μM 24 h; data not shown
Method: For assessing tetramethylrhodamine methyl ester perchlorate (TMRM) fluorescence, cell media was removed and replaced with cell media consisting of 5 nM TMRM (ThermoFisher) and 10 μg/ml Hoechst 33258 stain for 30 mins in the dark at 37° C. to allow incorporation of TMRM into mitochondria. Following PBS washes, FluoroBrite DMEM (Gibco) media was added to cells, followed by subsequent imaging using a Zeiss LSM800 microscope at 37° C. with 5% CO2.

[8] = system: OPA1; assay: OPA1 cleavage immunoblot (mitochondrial membrane depolarization) in parkin-transfected HeLa cells; type: cell-based; conditions: 50 μM 24 h, then 10 μM CCCP 3 h
Method: as §2, §3, §4, §5

OC[C@H]1O[C@@H](n2cnc3c(NCc4ccccc4)ncnc32)[C@H](O)[C@@H]1O [9c, (2R,3R,4S,5R)-2-(6-(benzylamino)-9H-purin-9-yl)-5-(hydroxymethyl)tetrahydrofuran-3,4-diol]
mitophagy in PINK1 KO MEFs [1]: not observed
parkin localisation to the mitochondria after pre-treatment followed by CCCP, compared to CCCP alone [2]: significant reduction
impact on mitochondrial fragmentation (TOM20), compound alone [2]: did not have any impact
impact on parkin localisation, compound alone [2]: did not have any impact
ubiquitin Ser65 phosphorylation after pre-treatment followed by valinomycin, compared to valinomycin alone ([3]; 50 μM 24 h, 50 nM valinomycin for 5 h): significant suppression of ubiquitin Ser65 phosphorylation
ubiquitin Ser65 phosphorylation, compound alone ([3]; 50 μM, 24 h): increased phosphorylation
level and PINK1 dependence of mitophagy (WT versus KO MEFs) [4]: low level of mitophagy in a PINK1-dependent manner
mitophagy in PINK1 WT MEFs [4]: induced mitophagy
inhibition of PINK1-mediated ubiquitin phosphorylation (summary statement) [5]: inhibit ubiquitin phosphorylation

OC[C@H]1O[C@@H](n2cnc3c(NCc4ccco4)ncnc32)[C@H](O)[C@@H]1O [kinetin riboside, N^6-(2-furanylmethyl) adenosine]
mitophagy in PINK1 KO MEFs [1]: not observed
CCCP-independent activation of PINK1 in cells, compared to kinetin [6]: more potent CCCP-independent activation of PINK1
parkin localisation to the mitochondria after pre-treatment followed by CCCP, compared to CCCP alone [2]: inhibition
impact on mitochondrial fragmentation (TOM20), compound alone [2]: did not have any impact
impact on parkin localisation, compound alone [2]: did not have any impact
prevention of membrane potential collapse caused by niclosamide and CCCP [7]: did not prevent the membrane potential collapse
level and PINK1 dependence of mitophagy (WT versus KO MEFs) [4]: low level of mitophagy in a PINK1-dependent manner
mitophagy in PINK1 WT MEFs [4]: induced mitophagy
inhibition of CCCP-induced phosphorylation of ubiquitin by pre-treatment ([5]; YFP-parkin HeLa cells, 50 μM 24 h, then 10 μM CCCP 1 h, immunoblot): inhibited
inhibition of niclosamide-induced phosphorylation of ubiquitin by pre-treatment ([5]; YFP-parkin HeLa cells, 50 μM 24 h, then 10 μM niclosamide 1 h, immunoblot): inhibited
inhibition of PINK1-mediated ubiquitin phosphorylation (summary statement) [5]: inhibit ubiquitin phosphorylation
inhibition of CCCP-induced phosphorylation of ubiquitin by pre-treatment ([5]; parkin-transfected HeLa cells, 50 μM 24 h, then 10 μM CCCP 3 h, immunoblot): inhibited the CCCP-induced phosphorylation of ubiquitin
phosphorylation of ubiquitin (Ub Ser65), compound alone ([5]; parkin-transfected HeLa cells, 50 μM, 24 h, no CCCP, immunoblot): did not lead to any notable phosphorylation of ubiquitin
prevention of OPA1 cleavage by pre-treatment [8]: did not prevent this effect

— US20260014184A1, “ADENOSINE DERIVATIVES FOR USE IN THE TREATMENT OF NEURODEGENERATIVE DISORDERS AND CANCER” (UNIVERSITY COLLEGE CARDIFF CONSULTANTS LIMITED, priority 2022, published 2026)
